Assay results published in US10889563B2, “Deoxyuridine triphosphatase inhibitors” (University of Southern California, priority 2013, dated 2021).
Values belong to the compound of their own block, whether it stands above or below them.

What was measured:
[1] = tested on: HCT-8 colorectal cell line model; assay: Colony formation assay, HCT-8; assay type: cell-based; conditions: HCT-8, increasing concentrations of compound plus fixed 1 μmol/L FUdR, vs single agents
Method: (§1) Colony forming assay showing the ability of colon (SW620, HCT 116), non-small cell lung (A549, H460, H1299 and H358) and breast (MCF7) cancer cells to survive and proliferate following transient 24 hour exposure to single agent PCI 1013, FUdR and combinations. Specifically, cells were seeded at densities between 50 and 100 cells/well in 24-well plates. Twenty-four hours later, cells were treated with increasing concentrations of PCI 10213, a fixed dose of FUdR and combinations of these. After 24 hours, drug was removed, cells were rinsed and allowed to outgrow for 10-14 days. At the conclusion of the outgrowth, cells were fixed in 60% ice cold methanol and stained with 0.1% crystal violet, scanned and counted. Data is presented as percentage of untreated controls (mean±SD). Fraction affected and combination indexes were calculated according to the method of Chou and Talalay where <1 is indicative of a synergistic drug interaction.
Colony forming assays were subsequently performed to evaluate the effectiveness of additional PCI compounds alone and in combination with FUdR at reducing cancer cell viability in the HCT-8 colorectal cell line model. […] Subsequently, increasing concentrations of PCI compounds were combined with a fixed dose of 1 μmol/L FUdR to evaluate the combined drug effect.

[2] = tested on: colorectal (HCT116), breast (MCF-7) and non-small cell lung (H1299, A549, H358 and H460) cell line models; assay: Colony formation assay, all cell lines evaluated; assay type: cell-based
Method: as §1
(§2) Subsequently, increasing concentrations of PCI 10213 were combined with a fixed dose of FUdR to evaluate the combined drug effect. In NSCLC cells, concentrations of PCI 10213 ranging from 3.1 μmol/L to 25 μmol/L were combined with 1 μmol/L FUdR. […] The effectiveness of this combination was pronounced in A549 and H460 cells where 12.5 and 25 μmol/L PCI 10213 combined with 1 μmol/L FUdR reduced cell viability by >95% compared to vehicle-treated controls.

HCT116 cells [3] = conditions: for single agent activity (growth inhibition vs vehicle): up to 75 μmol/L
SW620 cells [4] = assay: MTS growth inhibition assay, SW620; conditions: for single agent activity / decrease in proliferation / single agent activity (growth inhibition vs vehicle): SW620, 72 hours; for single agent activity / decrease in proliferation: 100 μmol/L single agent; for single agent activity (growth inhibition vs vehicle): up to 75 μmol/L
H1299 cells = assay: MTS growth inhibition assay, H1299; conditions: H1299, 72 hours, 100 μmol/L single agent
[5] = tested on: NSCLC cells (H1299, A549, H358 and H460); assay: Colony formation assay, NSCLC cells; assay type: cell-based; conditions: 3.1 to 25 μmol/L compound plus 1 μmol/L FUdR, vs single agents
Method: as §1, §2

[6] = molecular target: T1, Recombinant human deoxyuridine nucleotidohydrolase (dUTPase) (Homo sapiens, UniProt P33316); assay: Fluorescence-based dUTPase inhibition assay (Example 23; 2.5 ng dUTPase, 10 min at 37° C.); assay type: biochemical; design: made in house
T1 sequence (P33316 1-164 isoform P33316-2): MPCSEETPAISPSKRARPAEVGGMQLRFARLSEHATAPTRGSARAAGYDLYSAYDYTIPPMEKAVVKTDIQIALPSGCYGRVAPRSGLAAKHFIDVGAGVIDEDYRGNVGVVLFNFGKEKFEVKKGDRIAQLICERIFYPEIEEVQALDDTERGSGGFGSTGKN
Text: PCI 10586, 10585 and 10213 were suspended in DMSO at a concentration of 100 mmol/L, fluorodeoxyuridine (FUdR) was obtained from Sigma (St Louis, Mo.) and maintained in sterile double-distilled water at stock concentrations of 50 mmol/L. Recombinant human deoxyuridine nucleotidohydrolase (dUTPase) was expressed and purified as described previously [Please provide reference or confirm as noted above].
The diastereomer compounds were isolated by preparative chiral HPLC and screened in a novel fluorescence-based assay as described in Wilson et al. (2011) Nucleic Acids Res., September 1 39(17). […] The subsequent fluorescence detection step involved five 10 min cycles at 60° C. to completion.

A549 cells [7] = assay: MTS growth inhibition assay, A549; conditions: A549, 72 hours, 100 μmol/L single agent
A549 cells [8] = assay: Colony formation assay, A549; assay type: cell-based; conditions: A549, 12.5 and 25 μmol/L compound plus 1 μmol/L FUdR, vs vehicle-treated controls
Method: as §1, §2

HCT116 cells [9] = assay: Colony formation assay, HCT116; assay type: cell-based; conditions: for colonies formed, combination with FUdR: HCT116, increasing concentrations of compound plus fixed 0.5 μmol/L FUdR, vs single agents
Method: as §1, with “interaction. […]” for “interaction.”
(§3) In colorectal cancer cells, concentrations of PCI 10213 ranging from 3.1 μmol/L to 50 μmol/L were combined with 0.5 μmol/L FUdR in HCT116 cells and 1 μmol/L FUdR in SW620 cells.

SW620 cells [10] = assay: Colony formation assay, SW620; assay type: cell-based
Method: as §1, §3

[11] = molecular target: T1, Recombinant human deoxyuridine nucleotidohydrolase (dUTPase); assay: Fluorescence-based dUTPase inhibition assay (Example 19; 5 ng dUTPase, 8 min at 37° C.)
H460 cells = assay: Colony formation assay, H460; assay type: cell-based; conditions: H460, 12.5 and 25 μmol/L compound plus 1 μmol/L FUdR, vs vehicle-treated controls
Method: as §1, §2

Structure (SMILES): CC[C@@](O)(Cn1nncc1CCCCNC1(C)CCC(=O)NC1=O)c1ccc(F)c(OCC2CC2)c1 (stereo partly drawn) [PCI 10933]
- colonies formed / combined drug effect with FUdR [1]: Substantial reductions in colonies formed

Structure (SMILES): CC[C@@](O)(Cn1nncc1CCCCC1C(=O)Nc2ncccc21)c1ccc(F)c(OCC2CC2)c1 (stereo partly drawn) [PCI 10930]
- colonies formed / combined drug effect with FUdR [1]: Substantial reductions in colonies formed

Structure (SMILES): CC[C@@](O)(Cn1nncc1CCCCc1cnc2c(c1)CCC(=O)N2)c1ccc(F)c(OCC2CC2)c1 [PCI 10928]
- colonies formed / combined drug effect with FUdR [1]: Substantial reductions in colonies formed

Structure (SMILES): CC[C@@](O)(Cn1nncc1CCCCn1ccc(=O)[nH]c1=O)c1ccc(F)c(OCC2CC2)c1 [PCI 10950, reference compound]
- colonies formed / combined drug effect with FUdR [1]: strong synergy
- combined drug effect with fixed doses of FUdR ([2]; all cell lines examined (cell lines not named at b507)): strong synergy

Structure (SMILES): CC[C@@](O)(Cn1nncc1CCCCC1Cc2cccc(OC)c2NC1=O)c1ccc(F)c(OCC2CC2)c1 (stereo partly drawn) [PCI 10929]
- colonies formed / combined drug effect with FUdR [1]: Substantial reductions in colonies formed

Structure (SMILES): O=c1[nH]cc(F)c(=O)[nH]1 [5-FU, 5-fluorouracil, reference compound]
- growth inhibition, 5-FU alone (HCT116 cells [3]; HCT116, 0 to 100 μmol/L): dose-dependent increases in growth inhibition
- growth inhibition, 5-FU alone (SW620 cells [4]; SW620, 0 to 100 μmol/L): dose-dependent increases in growth inhibition

- inhibition at 1.3 µM ([6]; 1.3 μmol/L compound): 4.7%
- inhibition at 2.6 µM ([6]; 2.6 μmol/L compound): 9.6%
- inhibition at 5.2 µM ([6]; 5.2 μmol/L compound): 14.5%
- inhibition at 10.4 µM ([6]; 10.4 μmol/L compound): 24.9%
- inhibition at 20.8 µM ([6]; 20.8 μmol/L compound): 30%
- inhibition at 41.7 µM ([6]; 41.7 μmol/L compound): 45.5%
- inhibition at 83.3 µM ([6]; 83.3 μmol/L compound): 54.6%
- IC50 [11]: 7.2 µM
- inhibition at 1.3 µM ([11]; 1.3 umol/L compound): 28%
- inhibition at 2.6 µM ([11]; 2.6 umol/L compound): 31.6%
- inhibition at 5.2 µM ([11]; 5.2 umol/L compound): 40.9%
- inhibition at 10.4 µM ([11]; 10.4 umol/L compound): 60.3%
- inhibition at 20.8 µM ([11]; 20.8 umol/L compound): 64.5%
- inhibition at 41.7 µM ([11]; 41.7 umol/L compound): 73.8%
- % Inhibition ([11]; 83.3 umol/L compound): 86.1%
- inhibition at 83.3 µM ([11]; 83.3 umol/L compound): 86%
Structure (SMILES): C[C@@H](NS(=O)(=O)CC/C=C/CC1CCC(=O)NC1=O)c1cccc(OCC2CC2)c1 (mixture of isomers) [PCI 10213]
- decrease in cell proliferation (H1299 cells): 40%
- colonies formed, combination with FUdR [5]: highly significant reductions in colonies formed
- growth inhibition as a single agent (HCT116 cells [3]; HCT116, 25 μmol/L single agent): no detectable effect on growth inhibition
- decrease in growth / reduction in proliferation (HCT116 cells [3]; HCT116, 72 hours, 100 μmol/L single agent): 28%
- single agent activity (growth inhibition vs vehicle) (HCT116 cells [3]; HCT116, 72 hours): little to no single agent activity
- combined effect with 5-FU on growth inhibition (HCT116 cells [3]; HCT116, fixed 25 μmol/L compound plus increasing 5-FU, up to 25 μmol/L 5-FU): additive and synergistic increases in growth inhibition
- decrease in growth / reduction in proliferation (A549 cells [7]): ~25%
- reduction of cell viability, combination with FUdR (A549 cells [8]): > 95%
- viability, combination with FUdR (HCT116 cells [9]; HCT116, 50 μmol/L compound plus FUdR): complete loss of viability
- colonies, all combinations with FUdR (HCT116 cells [9]; HCT116, 3.1 to 50 μmol/L compound plus 0.5 μmol/L FUdR): strong synergistic reduction in colonies
- reduction of colony formation, combination with FUdR (HCT116 cells [9]; HCT116, 12.5 and 25 μmol/L compound plus 0.5 μmol/L FUdR): > 95%
- number of colonies formed, single agent (HCT116 cells [9]; HCT116, PCI 10213 3.1 to 50 μmol/L or FUdR 0.5 μmol/L alone): neither PCI 10213 or the fixed dose of FUdR single agent had any significant effect on the number of colonies formed
- reduction of colony formation, combination with FUdR (SW620 cells [10]; SW620 (strongly FUdR-resistant), 12.5 and 25 μmol/L compound plus FUdR (0.5 μmol/L in the sentence)): > 50%
- colonies, all combinations with FUdR (SW620 cells [10]; SW620, 3.1 to 50 μmol/L compound plus 1 μmol/L FUdR): strong synergistic reduction in colonies
- number of colonies formed, single agent (SW620 cells [10]; SW620, PCI 10213 3.1 to 50 μmol/L or FUdR 1 μmol/L alone): neither PCI 10213 or the fixed dose of FUdR single agent had any significant effect on the number of colonies formed
- number of colonies formed, compound alone ([2]; 3.1 to 25 μmol/L single agent): no significant effects on the number of colonies formed
- growth inhibition as a single agent (SW620 cells [4]; SW620, 25 μmol/L single agent): no detectable effect on growth inhibition
- single agent activity / decrease in proliferation (SW620 cells [4]): ~30%
- single agent activity (growth inhibition vs vehicle) (SW620 cells [4]): neither PCI 10213 or 10214 had any single agent activity
- combined effect with 5-FU on growth inhibition (SW620 cells [4]; SW620, fixed 25 μmol/L compound plus increasing 5-FU, up to 25 μmol/L 5-FU): additive and synergistic increases in growth inhibition
- reduction of cell viability, combination with FUdR (H460 cells): > 95%

Structure (SMILES): C[C@@H](NS(=O)(=O)CC/C=C/CC1SC(=O)NC1=O)c1cccc(OCC2CC2)c1 (stereo partly drawn) [PCI 10214]
- decrease in cell proliferation (H1299 cells): ≤ 40%
- single agent activity (growth inhibition vs vehicle) (HCT116 cells [3]; HCT116, 72 hours): little to no single agent activity
- decrease in growth / reduction in proliferation (A549 cells [7]): ~25%
- single agent activity / decrease in proliferation (SW620 cells [4]): ~30%
- single agent activity (growth inhibition vs vehicle) (SW620 cells [4]): neither PCI 10213 or 10214 had any single agent activity

Structure (SMILES): CC[C@@](O)(Cn1nncc1CCCCCC1CCC(=O)NC1=O)c1ccc(F)c(OCC2CC2)c1 (stereo partly drawn) [PCI 10952]
- colonies formed, combination with FUdR (HCT116 cells [9]): modest reductions in colonies formed

Structure (SMILES): CC[C@@](O)(Cn1nncc1CCCCC1CCC(=O)NC1=O)c1ccc(F)c(OCC2CC2)c1 (stereo partly drawn) [PCI 10951]
- colonies formed, combination with FUdR (HCT116 cells [9]): Substantial reductions in colonies formed
- colonies formed / combined drug effect with FUdR [1]: Substantial reductions in colonies formed

Structure (SMILES): CC[C@@](O)(Cn1nncc1CCCNC1CCC(=O)NC1=O)c1ccc(F)c(OCC2CC2)c1 (stereo partly drawn) [PCI 10927]
- colonies formed / combined drug effect with FUdR [1]: Substantial reductions in colonies formed
